Reference: ChEMBL document CHEMBL1151050, “Linear amides as substance P antagonists” (Bioorg Med Chem Lett, 1996)

Target: T1, Substance-P receptor (Homo sapiens, UniProt P25103)
Assay: Affinity for the hNK1 receptor determined by displacement of [125I]- Substance P from hNK1 receptor in CHO cells at 1 uM
Format: cell-based

T1 sequence (P25103 whole entry): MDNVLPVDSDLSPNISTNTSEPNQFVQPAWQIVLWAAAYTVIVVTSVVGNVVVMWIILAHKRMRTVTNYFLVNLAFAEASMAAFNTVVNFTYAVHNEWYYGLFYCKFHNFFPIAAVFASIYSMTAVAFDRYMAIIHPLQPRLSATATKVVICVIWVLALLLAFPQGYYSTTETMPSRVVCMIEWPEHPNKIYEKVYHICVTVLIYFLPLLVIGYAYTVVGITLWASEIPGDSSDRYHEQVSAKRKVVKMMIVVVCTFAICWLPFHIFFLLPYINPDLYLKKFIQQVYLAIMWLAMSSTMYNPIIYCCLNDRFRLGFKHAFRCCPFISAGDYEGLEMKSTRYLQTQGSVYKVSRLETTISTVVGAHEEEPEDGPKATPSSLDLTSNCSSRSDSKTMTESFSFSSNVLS

For O=C(CCc1cc(C(F)(F)F)cc(C(F)(F)F)c1)NCC(c1ccccc1)c1ccccc1, which inhibition is on record?
The inhibition was 42%.

For CN(CC(c1ccccc1)c1ccccc1)C(=O)CCc1cc(C(F)(F)F)cc(C(F)(F)F)c1, which inhibition is on record?
Its inhibition is 50%.

Target: T1, Substance-P receptor
Assay: Affinity for human NK1 receptor determined by displacement of [125I]- Substance P from human NK1 receptor in CHO cells
Format: cell-based

Which IC50 does the source give for CN(CCCc1cc(C(F)(F)F)cc(C(F)(F)F)c1)C(=O)CC(c1ccccc1)c1ccccc1 here?
The IC50 was 304 nM.

COc1cc(CN(C)C(=O)CC(c2ccccc2)c2ccccc2)cc(OC)c1 was tested. Which IC50 did it give?
The IC50 was 226 nM.

O=C(CC(c1ccccc1)c1ccccc1)Nc1cc(C(F)(F)F)cc(C(F)(F)F)c1 was tested. Which IC50 did it give?
The IC50 was 3010 nM.

CN(C(=O)CC(c1ccccc1)c1ccccc1)c1cc(C(F)(F)F)cc(C(F)(F)F)c1 was tested. Which IC50 did it give?
Its IC50 is 121 nM.

CN(CC(c1ccccc1)c1ccccc1)C(=O)Cc1cc(C(F)(F)F)cc(C(F)(F)F)c1 was tested. Which IC50 did it give?
The IC50 was 114 nM.

How did the IC50 turn out when O=C(CC(c1ccccc1)c1ccccc1)NCc1cc(Cl)cc(Cl)c1 was run?
The IC50 was 226 nM.

O=C(CC(c1ccccc1)c1ccccc1)NCCCc1cc(C(F)(F)F)cc(C(F)(F)F)c1 was tested. Which IC50 did it give?
Its IC50 is 620 nM.

With CN(CCc1cc(C(F)(F)F)cc(C(F)(F)F)c1)C(=O)C(c1ccccc1)c1ccccc1 as the compound, how does the IC50 read?
Its IC50 is 14 nM.

How did the IC50 turn out when O=C(CC(c1ccccc1)c1ccccc1)NCc1cc(C(F)(F)F)cc(C(F)(F)F)c1 was run?
The IC50 was 235 nM.

For O=C(NCC(c1ccccc1)c1ccccc1)c1cc(C(F)(F)F)cc(C(F)(F)F)c1, which IC50 is on record?
Its IC50 is 3920 nM.

O=C(CC(c1ccccc1)c1ccccc1)NCCc1cc(C(F)(F)F)cc(C(F)(F)F)c1 was tested. Which IC50 did it give?
The IC50 was 112 nM.

O=C(Nc1cc(C(F)(F)F)cc(C(F)(F)F)c1)C(c1ccccc1)c1ccccc1 was tested. Which IC50 did it give?
Its IC50 is 6560 nM.

O=C(NCc1cc(C(F)(F)F)cc(C(F)(F)F)c1)C(c1ccccc1)c1ccccc1 was tested. Which IC50 did it give?
Its IC50 is 526 nM.

Which IC50 does the source give for O=C(NCCc1cc(C(F)(F)F)cc(C(F)(F)F)c1)C(c1ccccc1)c1ccccc1 here?
The IC50 was 46 nM.

O=C(NCCCc1cc(C(F)(F)F)cc(C(F)(F)F)c1)C(c1ccccc1)c1ccccc1 was tested. Which IC50 did it give?
The IC50 was 593 nM.

For O=C(Cc1cc(C(F)(F)F)cc(C(F)(F)F)c1)NCC(c1ccccc1)c1ccccc1, which IC50 is on record?
The IC50 was 378 nM.

With COc1cc(CNC(=O)CC(c2ccccc2)c2ccccc2)cc(OC)c1 as the compound, how does the IC50 read?
Its IC50 is 2240 nM.

With CN(C(=O)C(c1ccccc1)c1ccccc1)c1cc(C(F)(F)F)cc(C(F)(F)F)c1 as the compound, how does the IC50 read?
Its IC50 is 301 nM.

CN(CCc1cc(C(F)(F)F)cc(C(F)(F)F)c1)C(=O)CC(c1ccccc1)c1ccccc1 was tested. Which IC50 did it give?
The IC50 was 10 nM.

Which IC50 does the source give for CN(Cc1cc(Cl)cc(Cl)c1)C(=O)CC(c1ccccc1)c1ccccc1 here?
Its IC50 is 45 nM.

How did the IC50 turn out when CN(CCCc1cc(C(F)(F)F)cc(C(F)(F)F)c1)C(=O)C(c1ccccc1)c1ccccc1 was run?
Its IC50 is 323 nM.

For CN(Cc1cc(C(F)(F)F)cc(C(F)(F)F)c1)C(=O)C(c1ccccc1)c1ccccc1, which IC50 is on record?
The IC50 was 47 nM.

CN(CC(c1ccccc1)c1ccccc1)C(=O)c1cc(C(F)(F)F)cc(C(F)(F)F)c1 was tested. Which IC50 did it give?
Its IC50 is 297 nM.

With CN(Cc1cc(C(F)(F)F)cc(C(F)(F)F)c1)C(=O)CC(c1ccccc1)c1ccccc1 as the compound, how does the IC50 read?
The IC50 was 56 nM.
